What was measured:
hPEPT 1 [1] = target: T1, hPEPT 1 (Homo sapiens, UniProt P46059); assay: Inhibitory effect on [^3H] Gly-Sar uptake by HeLa-hPEPT 1 cells; format: cell-based; conditions: for [^3H] Gly-Sar uptake % of control: HeLa-hPEPT 1, pH 6.0, 2 min
T1 construct: expressed in transfected cells; mock = HeLa-pcDNA 3
T1 sequence (P46059 1-708): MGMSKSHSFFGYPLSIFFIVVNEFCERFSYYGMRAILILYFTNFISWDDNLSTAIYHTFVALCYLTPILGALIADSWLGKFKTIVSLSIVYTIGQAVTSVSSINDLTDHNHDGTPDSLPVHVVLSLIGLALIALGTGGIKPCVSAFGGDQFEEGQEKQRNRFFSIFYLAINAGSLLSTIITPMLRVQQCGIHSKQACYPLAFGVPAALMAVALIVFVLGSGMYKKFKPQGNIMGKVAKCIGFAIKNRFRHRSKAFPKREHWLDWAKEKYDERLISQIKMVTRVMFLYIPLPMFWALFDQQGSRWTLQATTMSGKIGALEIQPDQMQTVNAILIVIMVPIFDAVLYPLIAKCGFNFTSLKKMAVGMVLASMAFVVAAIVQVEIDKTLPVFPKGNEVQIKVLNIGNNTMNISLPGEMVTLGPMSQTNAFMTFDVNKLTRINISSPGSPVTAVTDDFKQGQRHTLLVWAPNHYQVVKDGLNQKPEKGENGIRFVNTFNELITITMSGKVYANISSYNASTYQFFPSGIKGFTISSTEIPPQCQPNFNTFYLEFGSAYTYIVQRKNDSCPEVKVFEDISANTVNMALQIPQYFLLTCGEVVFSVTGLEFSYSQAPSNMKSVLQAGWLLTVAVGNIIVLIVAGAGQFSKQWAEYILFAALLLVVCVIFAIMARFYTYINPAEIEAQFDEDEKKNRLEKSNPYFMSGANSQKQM
Method: In order to examine the recognition property of VK-PRX and its component, VK-α-CD, both obtained in Example 4, to PEPT 1, the inihibitory effect to the uptake of [^3H] Gly-Sar by using HeLa cells stably expressing hPEPT 1 (HeLa-hPEPT 1) was examined. HeLa-hPEPT 1 cells or HeLa-pcDNA (Mock) cells prepared by the method described previously (Int. J. Cancer. 88, 274-80, 2000) were placed in a multidish (Nunc) at 10^6 cells/well and cultured in an incubator (Hirasawa) at 37° C. and 5% CO2 for four days. As a broth, DMEM (Dulbecco's modified Eagle's medium; Gibco Laboratories) containing 10% FCS (Gibco Laboratories), 2 mM L-glutamine, and 1 mg/ml G418 was used. After culture, the broth was aspirated and each cell was washed three times with 1 ml of Hanks' balanced salt solution (HBSS; 0.952 mM CaCl2, 5.36 mM KCl, 0.441 mM KH2PO4, 0.812 mM MgSO4, 136.7 mM NaCl, 0.385 mM Na2HPO4, 25 mM D-glucose, 10 mM MES: pH 6.0) at 37° C., then preincubated for five minutes. Subsequently, 250 μl of HBSS containing each inhibitor with the concentration shown in FIG. 4 and Table 8, and [^3H(G)] Gly-Sar (476 nM) was added and an uptake reaction was initiated at 37° C. The inhibitors, VK-PRX (No. 1˜6), were prepared such that the highest concentration of dissolved VK-PRX would be 500 μM or lower, and were filtrated through a filter, and then used for the uptake reaction. At the beginning of the reaction, the reaction solution was taken from each dish and placed into […]. Then, 4 ml of liquid scintillation cocktail (Clear-sol I, Nacalai tesque) was added to the solution, and radioactivity in the reaction solution was measured by a liquid scintillation counter (LSC-5100, Aloka Co. Ltd.). Two minutes after the beginning of the reaction, the reaction solution in each dish was removed by aspiration, and the reaction was stopped by washing the cells three times with 1 ml of ice-cooled HBSS (HEPES: pH 7.4). Subsequently, 250 μl of 5 N NaOH was added to each dish to solubilize the cells (for two hours or longer), and 250 μl of 5 N HCl was added for neutralization, then the whole amount was poured into mini vial, and 4 ml of liquid scintillation cocktail (Clear-sol I, Nacalai tesque) was added, and radioactivity taken in the cells was measured.
Further, in order to measure the amount of cellular proteins after the culture mentioned above, the cultured cells were solubilized, Bio-Rad Protein Assay reagent (Bio-Rad Co.) was added, and the absorbance at 595 nm was measured. As a standard, BSA (bovine serum albumin) was used. Based on the results, the uptake amount of [^3H] Gly-Sar into the cells [cell/medium ratio (μl/mg·protein)] was calculated according to the formula (3). The value of the control in FIG. 4 is the result of the uptake reaction conducted in the absence of the inhibitor. […] It has been shown that the uptake of [^3H]

[2] = CDX plasma pharmacokinetics after instant intravenous injection to rats with or without oral VK-PRX; conditions: male, Sprague-Dawley, rat
Method: (§1) At the column temperature 35° C., 7% of acetonitrile (containing 0.1 M of acetic acid buffer (pH 3.0) and 0.01 M of 1-pentasulfonic acid sodium) was used as a mobile phase for separating elution at flow rate 0.9 ml/min. The detection was conducted at wavelength 240 nm, and CDX concentration in the plasma was determined.
In the formula, α, β and V1 represent gradient of distribution phase, gradient of elimination phase, and distribution volume of central compartment, respectively.
(§2) In the formula, CL represents total clearance, Dose represents the dose of the drug, respectively.

PEPT 1 [3] = target: T2, PEPT 1 (Rattus norvegicus, UniProt P51574); conditions: in vivo, po
T2 sequence (P51574 1-710): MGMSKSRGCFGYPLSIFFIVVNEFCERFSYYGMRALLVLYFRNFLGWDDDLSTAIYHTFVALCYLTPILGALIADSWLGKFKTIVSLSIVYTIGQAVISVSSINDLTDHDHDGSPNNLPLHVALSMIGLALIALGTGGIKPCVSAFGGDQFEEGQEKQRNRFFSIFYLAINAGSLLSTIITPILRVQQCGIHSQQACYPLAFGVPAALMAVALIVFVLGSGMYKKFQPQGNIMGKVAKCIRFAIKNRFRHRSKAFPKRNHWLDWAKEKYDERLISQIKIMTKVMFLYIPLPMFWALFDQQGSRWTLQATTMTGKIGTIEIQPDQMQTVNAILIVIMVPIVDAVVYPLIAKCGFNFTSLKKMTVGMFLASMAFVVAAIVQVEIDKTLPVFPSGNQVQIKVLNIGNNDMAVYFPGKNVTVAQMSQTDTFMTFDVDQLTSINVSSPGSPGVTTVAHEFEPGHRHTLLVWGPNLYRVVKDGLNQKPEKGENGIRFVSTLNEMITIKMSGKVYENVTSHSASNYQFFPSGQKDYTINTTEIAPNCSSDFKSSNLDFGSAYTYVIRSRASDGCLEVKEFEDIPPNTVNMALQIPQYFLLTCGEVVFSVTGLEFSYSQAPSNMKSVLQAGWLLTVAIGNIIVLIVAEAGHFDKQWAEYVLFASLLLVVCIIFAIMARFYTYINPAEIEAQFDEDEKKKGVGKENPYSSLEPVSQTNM
Method: as §1
(§3) In the formula, C, F, D, ka, ke, Vd and t represent CDX concentration in the plasma, absorptance, dosage, absorption rate constant, elimination rate constant, distribution volume, and time interval between the drug administration and blood collection, respectively.
as §2
(§4) With regard to 2.5 mg/kg CDX and 45 mg/kg CEX (▾), CEX was orally administered to the rats 30 minutes before the administration of CDX. Each pharmacokinetic parameter of the above-mentioned rats was calculated based on the change in the CDX concentration in the blood, with the formula (4), the formula (6), the formula (7), and the formula (8), and evaluated. Values shown in the figure and the table are the mean±S.E.M. of three to four independent experiments.
(§5) Then each pharmacokinetic parameter was calculated based on the change in the CDX concentration in the blood, with the formula (4), the formula (6), the formula (7), and the formula (8), and evaluated. […] Values shown in the figures are the mean±S.E.M. of two to four independent experiments, and values shown in the tables are the mean±S.E.M. of three independent experiments.
(§6) Values shown in the figure and the table are the mean±S.E.M. of two to four independent experiments.
(§7) VK-PRK was orally administered 30 minutes before CDX administration. […] Values shown in FIG. 10, FIG. 11 and Table 14 are the mean±S.E.M. of four independent experiments, and values shown in Table 13 are the mean±S.E.M. of three independent experiments.
(§8) Values shown in the figure are the mean±S.E.M. of three independent experiments, and values shown in the table are the mean±S.E.M. of four independent experiments.

PEPT 1 [4] = target: T2, PEPT 1; assay: in vivo; conditions: male, Sprague-Dawley, po; for Tmax: Tmax of CDX
Method: as §1, §3, §2, §4, §5, §6, §7, §8

hPEPT 1 [5] = target: T1, hPEPT 1; assay: Effect of preincubation with inhibitor on [^3H] Gly-Sar uptake by HeLa-hPEPT 1 cells; format: cell-based; conditions: FIG. 5
Method: Gly-Sar uptake was examined by using HeLa cells stably expressing hPEPT 1 (HeLa-hPEPT 1). In the presence or absence of each inhibitor with concentrations shown in FIG. 5, preincubation was conducted for 30 minutes (open columns), and after the reaction solution was removed, the inhibitory effect on [^3H] Gly-Sar uptake was measured in a manner similar to that of Example 5 except that the uptake reaction was conducted in HBSS containing the same concentration of the inhibitor and [^3H] Gly-Sar (476 nM) (closed columns). In the figure, “Mock” indicates the uptake by HeLa-pcDNA 3 cells. […] Gly-Sar.

CC(C)[C@H](N)C(=O)N[C@@H](CCCCN)C(=O)O [Val-Lys, valyl-lysine]
[^3H] Gly-Sar uptake % of control (hPEPT 1 [1]; inhibitor 3 mM): 21.13 ± 1.80 % of control

CC1=C(C(=O)O)N2C(=O)[C@@H](NC(=O)[C@H](N)c3ccc(O)cc3)[C@H]2SC1 [Cefadroxil, cefadroxil]
Vd [2]: 0.162 ± 0.00899 L
clearance [2]: 11 ± 0.41 mL/min
[^3H] Gly-Sar uptake % of control (hPEPT 1 [1]; inhibitor 10 mM): 27.69 ± 1.44 % of control
dose dependence of AUC0−∞ and Cmax of CDX (in words) (PEPT 1 [3]): saturation phenomenon
AUC0-∞ of CDX (PEPT 1 [3]; male, Sprague-Dawley, 5 mg/kg): 272 ± 9.27 µg·min/mL
ke (elimination rate constant) of CDX (PEPT 1 [3]; male, Sprague-Dawley, 5 mg/kg): 0.54 ± 0.06 h⁻¹
AUC(0-inf) (PEPT 1 [4]; 5 mg/kg, AUC0-∞ of CDX): 2700 ng·h/mL
Tmax (PEPT 1 [4]; 5 mg/kg): 1.09 ± 0.08 h
k el (PEPT 1 [4]; 5 mg/kg, ke (elimination rate constant) of CDX): 8.61e-05 s⁻¹
Tmax (PEPT 1 [4]; […]): 0.95 h

CC1=C(C(=O)O)N2C(=O)C(NC(=O)C(N)c3ccccc3)C2SC1 (centres unmarked) [Cephalexin, cephalexin]
[^3H] Gly-Sar uptake % of control (hPEPT 1 [1]; inhibitor 10 mM): 70.12 ± 1.45 % of control

Gly-Sar
[^3H] Gly-Sar uptake % of control (hPEPT 1 [1]; inhibitor 10 mM): 12.93 ± 2.45 % of control

NCC(=O)O [Gly]
[^3H] Gly-Sar uptake % of control (hPEPT 1 [1]; inhibitor 10 mM): 97.71 ± 7.10 % of control

OC[C@H]1O[C@@H]2O[C@H]3[C@H](O)[C@@H](O)[C@@H](O[C@H]4[C@H](O)[C@@H](O)[C@@H](O[C@H]5[C@H](O)[C@@H](O)[C@@H](O[C@H]6[C@H](O)[C@@H](O)[C@@H](O[C@H]7[C@H](O)[C@@H](O)[C@@H](O[C@H]1[C@H](O)[C@H]2O)O[C@@H]7CO)O[C@@H]6CO)O[C@@H]5CO)O[C@@H]4CO)O[C@@H]3CO [α-CD, α-cyclodextrin]
Inhibitory effect on [^3H] Gly-Sar uptake (in words) (hPEPT 1 [1]; HeLa-hPEPT 1, FIG. 4 and Table 8): significant inhibitory effect was not observed
[^3H] Gly-Sar uptake % of control (hPEPT 1 [1]; inhibitor 3 mM): 125.87 ± 23.34 % of control
Inhibitory effect on [^3H] Gly-Sar uptake (in words) (hPEPT 1 [5]): no inhibitory effect
